1 compound from patent US20190365675A1, “COMPOSITIONS FOR THE PREVENTION AND/OR TREATMENT OF ALCOHOL USE DISORDERS” (SERVICIO ANDALUZ DE SALUD, priority 2016, published 2019) can be followed below.

Type in all cases: in vivo, Wistar rats
One assay deals with caspase-8. The assay is described as follows: Caspase-8 mRNA in frontal cortex after ethanol intoxication. The note with it: OEA pre-treatment. Here is the method: (§1) The animals were treated with intragastric (i.g.) ethanol 3 times a day using an i.g. cannula (16G needle, Fisher Scientific, Waltham, Mass., USA), following a protocol based on a slightly modified standard 4-day alcohol intoxication pattern (Bernier et al., 2002a, b) (FIG. 1A). The ethanol doses were administered every 8 h for a total time of 4 days. The rats treated with ethanol received an initial loading dose of 5 g/kg of ethanol in a 30% solution (w/v) and then a maximum maintenance dose of 3 g/kg, which were determined based on blood ethanol levels (BEL). This repeated standard alcohol intoxication paradigm kept BEL intoxication relatively constant in a range of sedation/ataxia (190 to 430 mg/dl, Table 3), according to the 6-point alcohol intoxication behavior scale (Majchrowicz, 1975). The mean dose of ethanol/rat/day (days 1-4) was 7.06 g/kg, similar to other studies (Obernier et al., 2002a, b). OEA (5 mg/kg, i.p., except initial dose of 10 mg/kg i.p.; synthesized as described in Giuffrida et al., 2000) was dissolved in the vehicle (5% Tween-80 in saline solution) and injected 10 minutes before each of the administrations of ethanol by an intragastric gavage. […] The quantitative changes in mRNA levels were estimated by means of RT-PCR, carried out in the presence of the SYBR green primer using a 20-L reaction in a Rotor-Gene (Corbett Research®, Mortlake, NSW, Australia). […]

The next assay relates to iNOS. Description: iNOS mRNA in frontal cortex after ethanol intoxication. The note with it: OEA pre-treatment. As for the experimental part:
as §1

In the next assay the test system is COX-2. The assay is described as follows: COX-2 mRNA in frontal cortex after ethanol intoxication. The note with it: ethanol-treated animals (not in vehicle-treated animals), OEA pre-treatment. As for the experimental part: as §1
The subject of another assay is 4-hydroxynonenal (4-HNE). The assay is described as follows: Lipid peroxidation (HNE adduct ELISA) in frontal cortex after ethanol intoxication. The note with it: significant only in animals treated with ethanol, OEA pre-treatment. As for the experimental part:
The animals were treated with intragastric (i.g.) ethanol 3 times a day using an i.g. cannula (16G needle, Fisher Scientific, Waltham, Mass., USA), following a protocol based on a slightly modified standard 4-day alcohol intoxication pattern (Bernier et al., 2002a, b) (FIG. 1A). The ethanol doses were administered every 8 h for a total time of 4 days. The rats treated with ethanol received an initial loading dose of 5 g/kg of ethanol in a 30% solution (w/v) and then a maximum maintenance dose of 3 g/kg, which were determined based on blood ethanol levels (BEL). This repeated standard alcohol intoxication paradigm kept BEL intoxication relatively constant in a range of sedation/ataxia (190 to 430 mg/dl, Table 3), according to the 6-point alcohol intoxication behavior scale (Majchrowicz, 1975). The mean dose of ethanol/rat/day (days 1-4) was 7.06 g/kg, similar to other studies (Obernier et al., 2002a, b). OEA (5 mg/kg, i.p., except initial dose of 10 mg/kg i.p.; synthesized as described in Giuffrida et al., 2000) was dissolved in the vehicle (5% Tween-80 in saline solution) and injected 10 minutes before each of the administrations of ethanol by an intragastric gavage. […] The levels of HNE protein adducts in cerebral cortex lysates were measured using an OxiSelect™ HNE adduct competitive ELISA 96-well kit (Cell Biolabs®, San Diego, Calif., USA).
A general note: ELISA stands for enzyme-linked immunosorbent assay.

A further assay deals with rats. The assay is described as follows: Forced swim test during acute ethanol withdrawal. The note with it: 48 h after last ethanol; OEA pre-treatment during intoxication. As for the experimental part: In this third experiment (n=25), the treatment with ethanol intoxication and pre-treatment with OEA applied in experiment 2 was repeated, and the animals were subjected to elevated plus maze test 24 h and 12 days after the last forced administration of ethanol and to the forced swim test 48 h after the ethanol intoxication protocol. The rats were subjected to the forced swim test two days after the last ethanol force-feeding (see FIG. 1C for the experimental design), and specific behaviors were recorded with a digital video camera for 5 minutes. These same rats were also subjected to the elevated plus maze test equipped with infrared light photography (Panlab, Barcelona, Spain) 1 and 12 days after the last ethanol force-feeding, where the animals were allowed to freely explore the maze for 5 minutes. The tests were performed 3 h after the start of the dark phase.

Each structure is given as a SMILES string.

With `CCCCCCCC/C=C\CCCCCCCC(=O)NCCO` [OEA, oleoylethanolamide], in the assay on caspase-8, the “Ethanol-induced overexpression of caspase-8 mRNA” value is listed as “reversed”. Further, the “Ethanol-induced increase in expression of iNOS mRNA” value with iNOS was “entirely prevented”. In the assay on COX-2, the “Levels of COX-2 mRNA with ethanol” value is “reduced”. In addition, the “Formation of HNE (lipid peroxidation)” value in the assay with 4-hydroxynonenal (4-HNE) is on record as “reduced”. In addition, in the assay on rats, the “Forced swim test: immobility” value is on record as “normalizing”, the “Forced swim test: latency” value is listed as “normalizing” and the “Forced swim test: swimming” value is “normalizing”.
